From patent publication US20250170114A1, “METHODS OF TREATMENT USING T-TYPE CALCIUM CHANNEL MODULATORS” (Praxis Precision Medicines, Inc., priority 2022, published 2025)
“Also recorded” adds a separate entry of the source.

Experiments:
[1] = test system: participants with ET; test: Phase 2 trial: Patient Global Impression of Change (PGI-C); type: in vivo, human; details: Part B RWD (RWAS), Day 70, study drug group, n = 5, vs randomization baseline
Excerpt: The Patient Global Impression of Change (PGI-C) assesses the participant's improvement (or worsening). The participant is required to assess their condition relative to Baseline (Day 0) on a 7-point scale from 1 (very much improved) to 7 (very much worse). The assessment is made independent of whether the participant believes the improvement/worsening was drug-related or not. In some embodiments, the method results in a reduction in PGI-C score compared to baseline. The Columbia-Suicide Severity Rating Scale (C-SSRS) assesses suicidal ideation and behavior in participants during participation in a clinical trial of centrally-acting drugs. The C-SSRS is composed of 5 questions addressing suicidal behavior and 5 questions addressing suicidal ideation, with sub-questions assessing the severity. The tool should be administered via interview with the participant (by a trained operator/interviewer) and takes about 5 to 10 minutes to complete. In some embodiments, the method results in a reduction in suicidal ideation and/or behavior as compared to suicidal ideation and/or behavior prior to treatment. In other embodiments, the method results in no change in the C-SSRS score of a patient as compared to the C-SSRS score prior to treatment. Key safety measures included clinical laboratory evaluations, 12-lead ECG, C-SSRS, and vital signs. Key efficacy assessments included the TETRAS Performance subscale, TETRAS Upper Limb using accelerometry, CGI, and PGI-C. Blood samples were obtained for the determination of study drug plasma concentrations using a validated bioanalytical method and may also be used for method development and/or metabolite characterization. In both phases, key safety measures included clinical laboratory evaluations, 12-lead ECG, C-SSRS, and vital signs. Key efficacy assessments included the TETRAS Performance subscale, TETRAS Upper Limb using accelerometry, CGI, PGI-C, TETRAS ADL Subscale, QUEST, BDI-II, and BAI. Blood samples were obtained for the determination of study drug and metabolite plasma concentrations.

[2] = test system: participants with ET; test: Phase 2 trial Part B: Beck Depression Inventory (BDI-II); type: in vivo, human
Method: The Beck Depression Inventory (BDI-II) is a list of 21 common symptoms of depression (Beck et al 1996). Each item is scored on a 4-point Likert scale (range of scores is 0 through 3). The time frame for assessment is the […] or since the last assessment. The BDI-II is divided into 2 subscales: Affective and Somatic. The subscale scores are calculated as the sum of the items comprising each subscale. The total score is calculated as the sum of all 21 items and ranges from 0 to 63. A total score of 0 to 13 indicates minimal depressive symptoms. A total score of 14 to 19 indicates mild depressive symptoms. A total score of 20 to 28 indicates moderate depressive symptoms. A total score of 29 to 63 indicates severe depressive symptoms. The BDI-II is assessed at screening to exclude participants with moderate to severe depressive symptoms. […] In both phases, key safety measures included clinical laboratory evaluations, 12-lead ECG, C-SSRS, and vital signs. Key efficacy assessments included the TETRAS Performance subscale, TETRAS Upper Limb using accelerometry, CGI, PGI-C, TETRAS ADL Subscale, QUEST, BDI-II, and BAI. Blood samples were obtained for the determination of study drug and metabolite plasma concentrations.

[3] = Phase 2 trial: study drug plasma concentrations; type: in vivo, human
Excerpt: Key safety measures included clinical laboratory evaluations, 12-lead ECG, C-SSRS, and vital signs. Key efficacy assessments included the TETRAS Performance subscale, TETRAS Upper Limb using accelerometry, CGI, and PGI-C. Blood samples were obtained for the determination of study drug plasma concentrations using a validated bioanalytical method and may also be used for method development and/or metabolite characterization. In both phases, key safety measures included clinical laboratory evaluations, 12-lead ECG, C-SSRS, and vital signs. Key efficacy assessments included the TETRAS Performance subscale, TETRAS Upper Limb using accelerometry, CGI, PGI-C, TETRAS ADL Subscale, QUEST, BDI-II, and BAI. Blood samples were obtained for the determination of study drug and metabolite plasma concentrations.

[4] = test system: harmaline-induced tremor in male SD rats; test: Tremor assessment (tremor score 0-4) with harmaline in SD rats; type: in vivo, rat; details: harmaline 30 mg/kg, doses of 1, 3 and 10 mg/kg, listed as compound of Formula (I)
Excerpt: Each of six groups of male SD rats were subjected to a tremor assessment, followed by three ADL-like measures including open field test, rotarod test, and wire grip test after receiving doses of either vehicle, Formula (I), or propranolol, followed by either saline or harmaline, as outlined below in Table 22 below. Twenty minutes after administration of harmaline or saline, the rats were subjected to a tremor assessment using the score criteria outlined in the table below.

[5] = test system: harmaline-induced motor impairment in male SD rats; test: Rotarod test with harmaline in SD rats; type: in vivo, rat; details: harmaline 30 mg/kg, dose of 3 and 10 mg/kg
Method: Each of six groups of male SD rats were subjected to a tremor assessment, followed by three ADL-like measures including open field test, rotarod test, and wire grip test after receiving doses of either vehicle, Formula (I), or propranolol, followed by either saline or harmaline, as outlined below in Table 22 below.
Fifteen minutes after the open field test, the rats were subjected to a rotarod test. The speed of the rotarod increased from 10 rpms to 60 rpms within the first five minutes of the test. FIG. 9 is a bar graph showing the mean of latency to fall in the rotarod test measured in rats that were administered 30 mg/kg harmaline and also administered 10 mg/kg propranolol or 1 mg/kg, 3 mg/kg or 10 mg/kg study drug.

[6] = Part B OLT (FAS), Day 7, n = 13
[7] = Part B OLT (FAS), Day 21, n = 12
[8] = Part B OLT (FAS), Day 42, n = 10
[9] = Part B RWD (RWAS), Day 56, Study drug, n = 6
[10] = Part B RWD (RWAS), Day 70, Study drug, n = 5

SMILES: CC(C)(C)NC(=O)CN1CCC(CNC(=O)c2cc(F)cc(Cl)c2)CC1.Cl [Study drug]
- PGI-C Score 3 minimally improved [1]: 1 (20.0) n (%)
- PGI-C Score 4 no change [1]: 3 (60.0) n (%)
- PGI-C Score 6 much worse [1]: 1 (20.0) n (%)
- BDI-II Depressive Symptoms Mild (14-19) [2, 6]: 1 n (%)
- BDI-II Depressive Symptoms Minimal (0-13) [2, 6]: 12 n (%)
- BDI-II Depressive Symptoms Moderate (20-28) [2, 6]: 0 n (%)
- BDI-II Depressive Symptoms Severe (29-63) [2, 6]: 0 n (%)
- BDI-II Depressive Symptoms Mild (14-19) [2, 7]: 1 n (%)
- BDI-II Depressive Symptoms Minimal (0-13) [2, 7]: 11 n (%)
- BDI-II Depressive Symptoms Moderate (20-28) [2, 7]: 0 n (%)
- BDI-II Depressive Symptoms Severe (29-63) [2, 7]: 0 n (%)
- BDI-II Depressive Symptoms Mild (14-19) [2, 8]: 0 n (%)
- BDI-II Depressive Symptoms Minimal (0-13) [2, 8]: 10 n (%)
- BDI-II Depressive Symptoms Moderate (20-28) [2, 8]: 0 n (%)
- BDI-II Depressive Symptoms Severe (29-63) [2, 8]: 0 n (%)
- BDI-II Depressive Symptoms Mild (14-19) [2, 9]: 0 n (%)
- BDI-II Depressive Symptoms Minimal (0-13) [2, 9]: 6 n (%)
- BDI-II Depressive Symptoms Moderate (20-28) [2, 9]: 0 n (%)
- BDI-II Depressive Symptoms Severe (29-63) [2, 9]: 0 n (%)
- BDI-II Depressive Symptoms Mild (14-19) [2, 10]: 1 n (%)
- BDI-II Depressive Symptoms Minimal (0-13) [2, 10]: 4 n (%)
- BDI-II Depressive Symptoms Moderate (20-28) [2, 10]: 0 n (%)
- BDI-II Depressive Symptoms Severe (29-63) [2, 10]: 0 n (%)
- change in BDI-II scores ([2]; Part B, pre-dose baseline to Day 70): no clinically meaningful change over time
- study drug plasma concentrations ([3]; 1-hour post-dose, all participants): Measurable
- study drug plasma concentrations ([3]; after 56 days of daily dosing and a 14-day washout period): undetectable
- concentration at 42 day ([3]; human, plasma, oral, 120 mg, Part B, Day 42, steady-state): 379 ng/mL
- concentration at 56 day ([3]; human, plasma, oral, Part B, Day 56): 344 ng/mL
- average tremor score vs vehicle and harmaline only [4]: significantly reduced; also recorded: significant inhibition
- latency to fall in rotarod test vs vehicle and harmaline only ([5]; listed as Formula (I)): significantly attenuated
- latency to fall in rotarod test vs vehicle and harmaline only ([5]; listed as compound of Formula (I)): significant attenuation of motor impairment
